Laboratory results published in patent publication US20220323406A1, “METHODS AND COMPOSITIONS FOR DIFFERENTIATING STEM CELLS” (Massachusetts Institute of Technology, priority 2019, published 2022).

What was measured:
[1] = system: ENR+CD organoids (ISC to Paneth cell differentiation); test: Primary screen: CCh-stimulated lysozyme secretion LYZ.S, 2.5-D 384-well ENR+CD organoid differentiation; type: cell-based, mouse; details: primary screen, FC relative to plate median
Source text: (§1) High-throughput screening.

[2] = system: ENR+CD organoids (ISC to Paneth cell differentiation); test: Primary screen: basal (non-stimulated) lysozyme secretion LYZ.NS, 2.5-D 384-well ENR+CD organoid differentiation; type: cell-based, mouse; details: primary screen; for Dose.FC.LYZ.NS: FC relative to plate median; for Z.LYZ.NS: standard z score
Source text: as §1

ENR+CD organoids = test: Primary screen: ATP (CellTiter-Glo 3D, CTG) cell number/viability, 2.5-D 384-well ENR+CD organoids; details: primary screen; for Dose.FC.CTG: FC relative to plate median; for Z.CTG: standard z score;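 for all read-outs here: compounds given at plating and again on day 3 over a 6-day differentiation from ENR+CV stem-cell-enriched precursors, ATP measured on day 6, plate median as control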

Question: With `O=S(=O)(c1ccccc1)c1cnc2c(N3CCNCC3)cccc2c1` [SB742457] as the compound, how does the Dose.FC.LYZ.S ([1]; dose 0.08 uM) read?
Answer: −0.055 log2 fold change

Question: And the Dose.FC.LYZ.S ([1]; dose 0.40 uM)?
Answer: −0.029 log2 fold change

Question: And the Dose.FC.LYZ.S ([1]; dose 2.00 uM)?
Answer: −0.003 log2 fold change

Question: What about the Dose.FC.LYZ.S ([1]; dose 10.00 uM) of the same compound?
Answer: −0.006 log2 fold change

Question: What about the Dose.FC.LYZ.NS ([2]; dose 0.08 uM) of the same compound?
Answer: 0.012 log2 fold change

Question: And the Z.LYZ.NS ([2]; dose 0.08 uM)?
Answer: 0.108

Question: What about the Dose.FC.LYZ.NS ([2]; dose 0.40 uM) of the same compound?
Answer: −0.062 log2 fold change

Question: What about the Z.LYZ.NS ([2]; dose 0.40 uM) of the same compound?
Answer: −0.537

Question: What about the Dose.FC.LYZ.NS ([2]; dose 2.00 uM) of the same compound?
Answer: 0.069 log2 fold change

Question: And the Z.LYZ.NS ([2]; dose 2.00 uM)?
Answer: 0.598

Question: What about the Dose.FC.LYZ.NS ([2]; dose 10.00 uM) of the same compound?
Answer: 0.013 log2 fold change

Question: What about the Z.LYZ.NS ([2]; dose 10.00 uM) of the same compound?
Answer: 0.115

Question: What about the Dose.FC.CTG (ENR+CD organoids; dose 0.08 uM) of the same compound?
Answer: −0.290 log2 fold change

Question: What about the Z.CTG (ENR+CD organoids; dose 0.08 uM) of the same compound?
Answer: −0.693

Question: What about the Dose.FC.CTG (ENR+CD organoids; dose 0.40 uM) of the same compound?
Answer: −0.126 log2 fold change

Question: And the Z.CTG (ENR+CD organoids; dose 0.40 uM)?
Answer: −0.300

Question: And the Dose.FC.CTG (ENR+CD organoids; dose 2.00 uM)?
Answer: −0.177 log2 fold change

Question: And the Z.CTG (ENR+CD organoids; dose 2.00 uM)?
Answer: −0.423

Question: What about the Dose.FC.CTG (ENR+CD organoids; dose 10.00 uM) of the same compound?
Answer: −0.294 log2 fold change

Question: What about the Z.CTG (ENR+CD organoids; dose 10.00 uM) of the same compound?
Answer: −0.702

Question: How did the Dose.FC.LYZ.S ([1]; dose 0.08 uM) turn out when `Cc1ccc(C(=O)N(CCCN)[C@@H](c2oc3cc(Cl)ccc3c(=O)c2Cc2ccccc2)C(C)C)cc1` [SB743921] was run?
Answer: −0.321 log2 fold change

Question: And the Dose.FC.LYZ.S ([1]; dose 0.40 uM)?
Answer: −0.329 log2 fold change

Question: What about the Dose.FC.LYZ.S ([1]; dose 2.00 uM) of the same compound?
Answer: −0.340 log2 fold change

Question: What about the Dose.FC.LYZ.S ([1]; dose 10.00 uM) of the same compound?
Answer: −0.350 log2 fold change

Question: And the Dose.FC.LYZ.NS ([2]; dose 0.08 uM)?
Answer: −0.232 log2 fold change

Question: And the Z.LYZ.NS ([2]; dose 0.08 uM)?
Answer: −2.017

Question: And the Dose.FC.LYZ.NS ([2]; dose 0.40 uM)?
Answer: −0.247 log2 fold change

Question: And the Z.LYZ.NS ([2]; dose 0.40 uM)?
Answer: −2.148

Question: And the Dose.FC.LYZ.NS ([2]; dose 2.00 uM)?
Answer: −0.264 log2 fold change

Question: And the Z.LYZ.NS ([2]; dose 2.00 uM)?
Answer: −2.297

Question: What about the Dose.FC.LYZ.NS ([2]; dose 10.00 uM) of the same compound?
Answer: −0.238 log2 fold change

Question: And the Z.LYZ.NS ([2]; dose 10.00 uM)?
Answer: −2.068

Question: And the Dose.FC.CTG (ENR+CD organoids; dose 0.08 uM)?
Answer: −0.485 log2 fold change

Question: And the Z.CTG (ENR+CD organoids; dose 0.08 uM)?
Answer: −1.159

Question: And the Dose.FC.CTG (ENR+CD organoids; dose 0.40 uM)?
Answer: −0.777 log2 fold change

Question: What about the Z.CTG (ENR+CD organoids; dose 0.40 uM) of the same compound?
Answer: −1.855

Question: What about the Dose.FC.CTG (ENR+CD organoids; dose 2.00 uM) of the same compound?
Answer: −0.485 log2 fold change

Question: What about the Z.CTG (ENR+CD organoids; dose 2.00 uM) of the same compound?
Answer: −1.158

Question: And the Dose.FC.CTG (ENR+CD organoids; dose 10.00 uM)?
Answer: −0.542 log2 fold change

Question: What about the Z.CTG (ENR+CD organoids; dose 10.00 uM) of the same compound?
Answer: −1.294

Question: How did the Dose.FC.LYZ.S ([1]; dose 0.08 uM) turn out when `O=C(NNc1nc2cc(F)ccc2n2cccc12)c1cnccn1` [SC144] was run?
Answer: 0.098 log2 fold change

Question: And the Dose.FC.LYZ.S ([1]; dose 0.40 uM)?
Answer: 0.014 log2 fold change

Question: And the Dose.FC.LYZ.S ([1]; dose 2.00 uM)?
Answer: −0.131 log2 fold change

Question: And the Dose.FC.LYZ.S ([1]; dose 10.00 uM)?
Answer: −0.211 log2 fold change

Question: What about the Dose.FC.LYZ.NS ([2]; dose 0.08 uM) of the same compound?
Answer: 0.067 log2 fold change

Question: What about the Z.LYZ.NS ([2]; dose 0.08 uM) of the same compound?
Answer: 0.582

Question: What about the Dose.FC.LYZ.NS ([2]; dose 0.40 uM) of the same compound?
Answer: −0.013 log2 fold change

Question: What about the Z.LYZ.NS ([2]; dose 0.40 uM) of the same compound?
Answer: −0.112

Question: What about the Dose.FC.LYZ.NS ([2]; dose 2.00 uM) of the same compound?
Answer: −0.025 log2 fold change

Question: And the Z.LYZ.NS ([2]; dose 2.00 uM)?
Answer: −0.220

Question: And the Dose.FC.LYZ.NS ([2]; dose 10.00 uM)?
Answer: −0.156 log2 fold change

Question: What about the Z.LYZ.NS ([2]; dose 10.00 uM) of the same compound?
Answer: −1.355

Question: What about the Dose.FC.CTG (ENR+CD organoids; dose 0.08 uM) of the same compound?
Answer: 0.160 log2 fold change

Question: And the Z.CTG (ENR+CD organoids; dose 0.08 uM)?
Answer: 0.381

Question: And the Dose.FC.CTG (ENR+CD organoids; dose 0.40 uM)?
Answer: 0.129 log2 fold change

Question: And the Z.CTG (ENR+CD organoids; dose 0.40 uM)?
Answer: 0.309

Question: And the Dose.FC.CTG (ENR+CD organoids; dose 2.00 uM)?
Answer: −0.257 log2 fold change

Question: And the Z.CTG (ENR+CD organoids; dose 2.00 uM)?
Answer: −0.613

Question: And the Dose.FC.CTG (ENR+CD organoids; dose 10.00 uM)?
Answer: −0.885 log2 fold change

Question: And the Z.CTG (ENR+CD organoids; dose 10.00 uM)?
Answer: −2.113

Question: Which Dose.FC.LYZ.S ([1]; dose 0.08 uM) does the source give for `CC(C)N(CCCNC(=O)Nc1ccc(C(C)(C)C)cc1)C[C@H]1O[C@@H](n2cc(Br)c3c(N)ncnc32)[C@H](O)[C@@H]1O` [SGC0946] here?
Answer: 0.145 log2 fold change

Question: And the Dose.FC.LYZ.S ([1]; dose 0.40 uM)?
Answer: −0.098 log2 fold change

Question: And the Dose.FC.LYZ.S ([1]; dose 2.00 uM)?
Answer: 0.220 log2 fold change

Question: And the Dose.FC.LYZ.S ([1]; dose 10.00 uM)?
Answer: 0.065 log2 fold change

Question: What about the Dose.FC.LYZ.NS ([2]; dose 0.08 uM) of the same compound?
Answer: 0.090 log2 fold change

Question: And the Z.LYZ.NS ([2]; dose 0.08 uM)?
Answer: 0.787

Question: What about the Dose.FC.LYZ.NS ([2]; dose 0.40 uM) of the same compound?
Answer: −0.027 log2 fold change

Question: What about the Z.LYZ.NS ([2]; dose 0.40 uM) of the same compound?
Answer: −0.236

Question: What about the Dose.FC.LYZ.NS ([2]; dose 2.00 uM) of the same compound?
Answer: 0.200 log2 fold change

Question: What about the Z.LYZ.NS ([2]; dose 2.00 uM) of the same compound?
Answer: 1.738

Question: What about the Dose.FC.LYZ.NS ([2]; dose 10.00 uM) of the same compound?
Answer: 0.059 log2 fold change

Question: And the Z.LYZ.NS ([2]; dose 10.00 uM)?
Answer: 0.516

Question: What about the Dose.FC.CTG (ENR+CD organoids; dose 0.08 uM) of the same compound?
Answer: 0.052 log2 fold change

Question: And the Dose.FC.CTG (ENR+CD organoids; dose 0.40 uM)?
Answer: −0.122 log2 fold change

Question: What about the Dose.FC.CTG (ENR+CD organoids; dose 2.00 uM) of the same compound?
Answer: −0.082 log2 fold change

Question: And the Dose.FC.CTG (ENR+CD organoids; dose 10.00 uM)?
Answer: −0.142 log2 fold change
